Experimental data as given in patent US20230144619A1, “SALT OF ARYLAMINOPURINE DERIVATIVE, PREPARATION METHOD THEREFOR AND USE THEREOF” (CSPC Zhongqi Pharmaceutical Technology (Shijiazhuang) Co., …, priority 2020, published 2023).
Counter-ions that a name gives are not always drawn.

Experiments:
[1] = Hygroscopicity test; type: physicochemical; details: 25±1° C., relative humidity 80%±2% (DVS, 80% RH)
Method: Detection instrument: XPE105DR
(1) A dry stoppered glass weighing bottle was taken, placed in a suitable constant-temperature desiccator at 25° C. 1° C. (with a saturated solution of ammonium chloride or ammonium sulfate in the lower part) or an artificial climate box (with the set temperature of 25° C.±1° C. and the relative humidity of 80%±2%) on the day before the test, and precisely weighed and recorded as the weight (m1).
(2) An appropriate amount of the test sample was taken and spread in the above-mentioned weighing bottle. The thickness of the test sample was generally about 1 mm, and the bottle was precisely weighed and recorded as the weight (m2).
(3) The stopper was removed to open the weighing bottle, and the opened weighing bottle and the stopper were placed under the above-mentioned constant temperature and humidity conditions for 24 hours.
(4) The opened weighing bottle was stoppered, precisely weighed, and recorded as the weight (m3).
Percentage increase in mass=(m3−m2)/(m2−m1)×100%
(5) The description of hygroscopicity characteristics and the definition for the weight gain due to hygroscopicity:
Deliquescence: Sufficient water was absorbed to form a liquid.
Very hygroscopic: the weight gain due to hygroscopicity was not less than 15%.
Hygroscopic: the weight gain due to hygroscopicity was less than 15% but not less than 2%.
Slightly hygroscopic: the weight gain due to hygroscopicity was less than 2% but not less than 0.2%.
Not or nearly not hygroscopic: the weight gain due to hygroscopicity was less than 0.2%.
Appropriate amounts of the salt samples obtained from Examples 1 and 3-17 were subjected to the hygroscopicity test at a temperature of 25±1° C. under a relative humidity of 80%±2%, and the results were as follows: […]

[2] = Long-term stability test; type: physicochemical; details: 25±2° C., relative humidity 60%±5%; for Content (%) / Moisture (%) / Related substances (%): packaged; for Acidity: pH value of 10 mg in 10 mL water
Method: Detection instrument: Karl Fischer moisture titrator/915 KF Ti-Touch
Test method: After the instrument was balanced, a proper amount (about 200 mg) of the test sample was taken, precisely weighed, and added to a titration cup, absolute methanol was used as the solvent, and a moisture titration solution was used for the direct measurement, and an average value was obtained by measuring each test sample twice.
Detection Instrument: High performance liquid chromatograph/Waters e2695-2489
Octadecyl silane bonded to silica gel was used as a filler (the applicable range of the pH value should be greater than 10.0), 20 mmol/L of disodium hydrogen phosphate solution (the pH value was adjusted to 10.0 with sodium hydroxide)-acetonitrile (65:35) was used as the mobile phase; the detection wavelength was 287 nm, and the column temperature was 30° C. The number of theoretical plates should be not less than 3000.
Determination method: About 20 mg of the sample was taken and precisely weighed, put in a 100 mL volumetric flask. A diluent (50% methanol/water) was added to dissolve and dilute the sample to the scale. The content was shaken uniformly, and 10 μL was precisely metered and injected into a liquid chromatograph, and the chromatogram was recorded; another appropriate amount of the reference substance was taken, and the same method was used for determination. The result was obtained by calculating the peak area according to the external standard method.
Detection instrument: Mettler Toledo S210-K pH meter
Test method: Based on the operation according to the pH value measurement method, 10 mg of a sample was precisely weighed, then 10 mL of freshly boiled and cooled purified water was added to dissolve the sample, and the mixture was shaken uniformly, and then the pH value was measured.
12. Measurement of Related Substances
Detection instrument: High performance liquid chromatograph/Waters e2695-2489
Chromatographic Conditions:
Octadecylsilane bonded to silica gel was used as a filler (Model: Waters Xbridge C18 chromatographic column, with a length of 250 mm, an inner diameter of 4.6 mm, and a filler particle size of 5 μm), the detection wavelength was 250 nm, the column temperature was 35° C., and the flow rate was 1.0 mL/minute, the mobile phase A was 0.02 mol/L of a disodium hydrogen phosphate solution (the pH value was adjusted to 10.0 with a sodium hydroxide solution), the mobile phase B was acetonitrile, and the diluent was methanol, and the temperature of the sample plate was 4° C.
Test method: The system applicability test was performed according to the requirements, and the test sample solution, the control solution, and the sensitivity solution were prepared. Each 10 μL of the control solution and the test sample solution were precisely metered and injected into a liquid chromatograph, and the chromatogram was recorded. The result was obtained by calculating the peak area according to the self-dilution control method with the correction factor.
An appropriate amount of the salt sample obtained from Example 1 was taken, a medicinal low-density polyethylene sack was used as the internal packaging, and a polyester/aluminum/polyethylene composite bag for medicine packaging was used as the external packaging. Samples were taken respectively at the end of the 3rd, 6th, 9th, 12th, and 18th months after being stored at a temperature of 25±2° C. under a relative humidity of 60%±5%. The appearances were compared, followed by measuring other investigation indexes. The results were compared with those measured in the 0th month.

[3] = system: K562 (BCR-Abl gene rearrangement) subcutaneous tumor model; test: In-vivo anti-tumor test, K562 subcutaneous tumor model; set-up: species or system nude mice; details: 70 mg/kg, once daily oral administration for 18 days
Method: (§1) The salt sample obtained from Example 1 was tested (specifically for FLT3-ITD acute myeloid leukemia, non-small cell lung cancer with EGFR activating mutations, or Ph-positive chronic myeloid leukemia) according to the in-vivo anti-tumor test described in the biological assessment of the patent application WO2011/147066.

[4] = system: human non-small cell lung cancer HCC827; test: In-vivo anti-tumor test, non-small cell lung cancer model; set-up: species or system nude mice; details: once daily oral administration for 30 days
Method: as §1

[5] = system: MV4-11 (FLT3-ITD mutation) subcutaneous tumor model; test: In-vivo anti-tumor test, MV4-11 subcutaneous tumor model; set-up: species or system nude mice; details: MV4-11 model, once daily oral administration for 21 days
Method: as §1

[6] = molecular target: EGFR(h) (Homo sapiens, UniProt P00533); test: Kinase inhibitory activity test (per WO2011/147066); type: biochemical
Chain of EGFR(h) (P00533 25-1210): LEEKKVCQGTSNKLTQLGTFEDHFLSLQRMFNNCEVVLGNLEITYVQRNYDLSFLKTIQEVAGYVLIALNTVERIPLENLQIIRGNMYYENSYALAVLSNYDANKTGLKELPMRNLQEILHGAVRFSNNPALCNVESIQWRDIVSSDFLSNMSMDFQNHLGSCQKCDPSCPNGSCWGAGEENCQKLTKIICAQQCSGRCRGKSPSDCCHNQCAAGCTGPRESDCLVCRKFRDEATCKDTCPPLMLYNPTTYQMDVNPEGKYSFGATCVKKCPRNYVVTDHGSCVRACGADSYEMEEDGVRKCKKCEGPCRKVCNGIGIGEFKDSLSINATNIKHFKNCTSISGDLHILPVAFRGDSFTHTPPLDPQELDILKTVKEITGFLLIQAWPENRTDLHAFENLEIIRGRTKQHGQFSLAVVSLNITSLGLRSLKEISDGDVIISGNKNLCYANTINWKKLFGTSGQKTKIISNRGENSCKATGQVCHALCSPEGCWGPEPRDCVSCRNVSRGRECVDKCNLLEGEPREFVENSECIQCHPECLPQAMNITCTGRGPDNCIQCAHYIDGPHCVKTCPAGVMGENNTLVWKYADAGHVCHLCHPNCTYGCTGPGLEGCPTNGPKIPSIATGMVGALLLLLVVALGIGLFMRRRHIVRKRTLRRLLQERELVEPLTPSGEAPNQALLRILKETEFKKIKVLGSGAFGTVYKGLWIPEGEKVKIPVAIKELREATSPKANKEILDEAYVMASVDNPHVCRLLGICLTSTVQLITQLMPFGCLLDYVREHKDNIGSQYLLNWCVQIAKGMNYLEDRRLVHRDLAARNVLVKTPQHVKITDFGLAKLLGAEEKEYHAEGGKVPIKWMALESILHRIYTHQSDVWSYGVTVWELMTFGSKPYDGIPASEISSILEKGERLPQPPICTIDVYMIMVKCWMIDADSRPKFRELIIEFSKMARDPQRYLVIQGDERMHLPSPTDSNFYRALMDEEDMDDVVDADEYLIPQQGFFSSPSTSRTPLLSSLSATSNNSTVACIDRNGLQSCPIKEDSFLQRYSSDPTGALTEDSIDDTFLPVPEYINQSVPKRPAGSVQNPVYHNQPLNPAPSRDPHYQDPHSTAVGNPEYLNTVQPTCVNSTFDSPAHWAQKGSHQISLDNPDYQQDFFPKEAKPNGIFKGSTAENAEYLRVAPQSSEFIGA

With CC(C)n1c(Nc2cccnc2)nc2cnc(Nc3ccc(N4CCN(C)CC4)cc3)nc21 [Example 1, arylaminopurine derivative.trihydrochloride.pentahydrate] the Hygroscopicity [1] was “Slightly hygroscopic (the weight gain due to hygroscopicity was less than 2% but not less than 0.2%.)”, the “Weight gain due to hygroscopicity” value [1] was 0.7% and the “Content (%)” value ([2]; 0 Month) was 100.9%. The “Moisture (%)” value ([2]; 0 Month) was 13.9%, the “Related substances (%)” value ([2]; 0 Month) was 0.33% and the “Content (%)” value ([2]; 3 Month) was 100.4%. For the same compound, the “Moisture (%)” value ([2]; 3 Month) was 13.9%, the “Related substances (%)” value ([2]; 3 Month) was 0.34% and the “Content (%)” value ([2]; 6 Month) was 100.8%. For the same compound, the “Moisture (%)” value ([2]; 6 Month) was 14.3%, the “Related substances (%)” value ([2]; 6 Month) was 0.34% and the “Content (%)” value ([2]; 9 Month) was 101.7%. The “Moisture (%)” value ([2]; 9 Month) was 14.3%, the “Related substances (%)” value ([2]; 9 Month) was 0.31% and the “Content (%)” value ([2]; 12 Month) was 99.6%. The “Moisture (%)” value ([2]; 12 Month) was 13.9%, the “Related substances (%)” value ([2]; 12 Month) was 0.34% and the “Content (%)” value ([2]; 18 Month) was 100.2%. For the same compound, the “Moisture (%)” value ([2]; 18 Month) was 14.2%, the “Related substances (%)” value ([2]; 18 Month) was 0.26% and the Acidity ([2]; 0 Month) was 3.1. For the same compound, the Acidity ([2]; 3 Month) was 3.3, the Acidity ([2]; 6 Month) was 3.3 and the Acidity ([2]; 9 Month) was 3.3. For the same compound, the Acidity ([2]; 12 Month) was 3.3, the Acidity ([2]; 18 Month) was 3.3 and the tumor growth [3] was “effectively inhibit the tumor growth”. The tumor inhibition rate [3] was 71.3%, the “growth of human non-small cell lung cancer HCC827” value ([4]; 7.5, 15 and 30 mg/kg, dose dependence) was “dose-dependently inhibit the growth” and the “tumor size compared with the initial tumor” value ([4]; HCC827, 7.5 mg/kg) was “tumor shrinkage”. The “tumor size compared with the initial tumor” value ([4]; HCC827, 15 mg/kg) was “tumor shrinkage”, the “regression of the tumor” value ([4]; HCC827, 30 mg/kg) was “nearly complete regression of the tumor” and the “tumor size compared with the initial tumor” value ([4]; HCC827, 30 mg/kg) was “tumor shrinkage”. The tumor growth ([5]; 5 mg/kg) was “completely inhibit the tumor growth”, the tumor growth ([5]; 10 mg/kg) was “complete regression of the tumor” and the tumor growth ([5]; 20 mg/kg) was “complete regression of the tumor”. It also gave an IC50 [6] of 42 nM.
